In article PMC10605449 (Biosensors, 2023):
Changes are numbered by the printed parent chain.

How the values were obtained:
Type in all cases: binding
MARK3(48-370) = molecular target: T1, MARK3(48-370) (Homo sapiens, UniProt P27448); assay: SPR, pure MARK3(48-370) WT immobilized by amine coupling, GSK461364A injected
T1 construct: The purified His6-TEV-MARK3(48-370) was immobilized using the same approach as GST-NUAK2(1-628); HRV3C site (C, cleaved yes); AviTag (C, cleaved yes); made in house
T1 sequence (P27448 48-370): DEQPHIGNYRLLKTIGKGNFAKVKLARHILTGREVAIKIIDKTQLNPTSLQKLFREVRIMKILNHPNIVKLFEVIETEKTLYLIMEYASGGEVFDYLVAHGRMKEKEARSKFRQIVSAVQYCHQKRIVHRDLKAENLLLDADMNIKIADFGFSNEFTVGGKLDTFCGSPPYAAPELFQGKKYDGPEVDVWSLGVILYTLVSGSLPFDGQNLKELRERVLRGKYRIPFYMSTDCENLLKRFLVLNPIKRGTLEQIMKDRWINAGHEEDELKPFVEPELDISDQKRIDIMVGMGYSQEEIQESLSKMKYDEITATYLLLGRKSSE
Experimental: (§1) The interaction analysis cycles consisted of 140 s of sample injection followed by 350 to 600 s of running buffer flow. The running buffer was composed of 20 mM HEPES pH 7.4, 100 mM NaCl, 5 mM MgCl2, 1 mM EGTA, 1 mM DTT, 0.05% Tween-20, and 2% DMSO, and the experiment was performed at 15 °C.
All sensorgrams were processed by first subtracting the binding response recorded from the control surface (reference spot, where only the avidin protein is immobilized), followed by subtraction of the buffer blank injection from the reaction spot. All datasets were fitted to a simple 1:1 Langmuir interaction model to determine the kinetic rate constants, and the interaction affinity was additionally calculated at a steady state when applicable. In cases where small molecules were present during the assay, a DMSO solvent correction (1–3%) was applied to account for variations in bulk signal and to achieve high-quality data. The experiments with immobilized purified proteins were performed on a Biacore 4000 (Cytiva, Uppsala, Sweden), and the interaction was evaluated using the provided Biacore 4000 evaluation software, while the experiments with soluble cell lysates on a Biacore T200 (Cytiva, Uppsala, Sweden) used the provided Biacore T200 evaluation software. All SPR experiments were performed in duplicate.

MARK3(48-370) Mutant 2 = molecular target: T2, MARK3(48-370) Mutant 2 (Homo sapiens, UniProt P27448, E139D/I62L/L128I/L130I/T204H/V116I/V205Q); assay: SPR Extract2Chip, cellular biotinylated MARK3 Mutant 2, GSK461364A injected; details: 15 °C
T2 construct: made in house; host or cells: E. coli Rosetta 2, co-expressed with BirA; soluble lysate used without purification
T2 sequence (P27448 48-370 I62L/V116I/L128I/L130I/E139D/T204H/V205Q): T1 sequence (P27448 48-370) with I15L, V69I, L81I, L83I, E92D, T157H, V158Q
Experimental: (§2) The cellular biotinylation of MARK3(48-370) kinase domain mutants followed the same approach as described for CypD. The 6 different mutants were expressed in Rosetta^TM 2 in PB media, and induced with 100 µM IPTG overnight at 18 °C.
(§3) The cellular biotinylated MARK3 NUAK2-like mutants were immobilized using the approach described in Section 2.5.2. The soluble cell lysates were diluted to a final concentration of 200 µg/mL, then injected over the neutravidin surfaces for 200 or 1400 s in order to reach 1000 to 2300 RU.
as §1
(§4) All sensorgrams were processed by first subtracting the binding response recorded from the control surface (reference spot, where only the avidin protein is immobilized), followed by subtraction of the buffer blank injection from the reaction spot. All datasets were fitted to a simple 1:1 Langmuir interaction model to determine the kinetic rate constants, and the interaction affinity was additionally calculated at a steady state when applicable. […]

MARK3(48-370) Mutant 5 = molecular target: T3, MARK3(48-370) Mutant 5 (Homo sapiens, UniProt P27448, A68G/E139D/F199L/F67Y/G137R/I62L/L128I/L130I/N66T/T204H/V116I/V205Q); assay: SPR Extract2Chip, cellular biotinylated MARK3 Mutant 5, GSK461364A injected; details: 15 °C
T3 construct: made in house; host or cells: E. coli Rosetta 2, co-expressed with BirA; soluble lysate used without purification
T3 sequence (P27448 48-370 I62L/N66T/F67Y/A68G/V116I/L128I/L130I/G137R/E139D/F199L/T204H/V205Q): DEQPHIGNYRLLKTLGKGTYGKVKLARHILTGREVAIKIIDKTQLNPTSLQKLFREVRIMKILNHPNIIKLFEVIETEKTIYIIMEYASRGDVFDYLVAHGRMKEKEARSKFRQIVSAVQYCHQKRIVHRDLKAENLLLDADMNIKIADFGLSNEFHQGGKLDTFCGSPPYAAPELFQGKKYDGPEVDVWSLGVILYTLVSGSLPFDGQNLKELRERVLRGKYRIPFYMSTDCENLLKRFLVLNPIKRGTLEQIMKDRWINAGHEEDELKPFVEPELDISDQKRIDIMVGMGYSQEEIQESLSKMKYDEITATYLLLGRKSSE
Experimental: as §2, §3, §1, §4

- Binding behavior (MARK3(48-370)): transient binding behavior
- kd ± SD (MARK3(48-370) Mutant 2): 0.081 ± 0.015 s⁻¹
- kd ± SD (MARK3(48-370) Mutant 5): 0.035 ± 0.012 s⁻¹
Compound: C[C@@H](Oc1cc(-n2cnc3ccc(CN4CCN(C)CC4)cc32)sc1C(N)=O)c1ccccc1C(F)(F)F [GSK461364A]
